From BindingDB's records for doi:10.1021/acs.jmedchem.5b00497 (Shandong University, 2016)

Experiment: Inhibition of human recombinant CCR5 encoding an HIV-1-longterminal-repeat-regulated beta-galactosidase reporter gene expressed in human HeLaP4 cells assessed as reduction of interaction with HIV-1 gp160 expressed in CHO cells by cell-cell fusion assay

- IC50: 650 nM
SMILES: Cc1nc2ccccc2n1C1CCN(CCC(c2ccccc2)c2ccccc2)CC1
